Structures are written as SMILES.

One may read the IC50 as the point on the concentration scale where inhibition reaches its midpoint. A low value points to higher potency.

Type in all cases: functional, cell-based
One assay concerns MCF7. Kind of assay: Antiproliferative activity against human MCF7 cells after 48 hrs by MTT assay. The note with it: MCF7, 48 h. Background: Tetrazolium dyes change colour on reduction, which living cells bring about.
The next assay concerns A549. The assay is described as follows: Antiproliferative activity against human A549 cells after 48 hrs by MTT assay. The following applies: A549, 48 h.
The subject of another assay is HeLa. The assay is described as follows: Antiproliferative activity against human HeLa cells after 48 hrs by MTT assay.

On to `Cc1ccc2nc(NC(c3cn(-c4ccccc4)nc3-c3cccc(Cl)c3)c3c(O)ccc4ccccc34)sc2c1` (stereo unspecified), for which the IC50 with MCF7 was 49.7 µM; in the assay with A549, 45.4 µM; in the assay on HeLa, 9.43 µM.

In the case of `COc1cccc(-c2nn(-c3ccccc3)cc2C(Nc2nc3ccc(OC)cc3s2)c2c(O)ccc3ccccc23)c1` (stereo unspecified), the IC50 is 62.6 µM in the assay on MCF7, 88.1 µM in the assay with A549 and 10.5 µM in the assay on HeLa.

Consider `Cc1ccc(-c2nn(-c3ccccc3)cc2C(Nc2nc3ccccc3s2)c2c(O)ccc3ccccc23)cc1` (stereo unspecified), for which the 50% inhibitory concentration (IC50) amounted to 13.1 µM with MCF7, 57.4 µM in the assay on A549 and 8.05 µM in the assay with HeLa.

Consider `Oc1ccc2ccccc2c1C(Nc1nc2ccccc2s1)c1cn(-c2ccccc2)nc1-c1ccc(I)cc1` (stereo unspecified), for which the 50% inhibitory concentration (IC50) in the assay with MCF7 was determined as 18.9 µM; in the assay on A549, 23.1 µM; with HeLa it was 6.59 µM.

Consider `COc1ccc(-c2nn(-c3ccccc3)cc2C(Nc2nc3ccc(OC)cc3s2)c2c(O)ccc3ccccc23)cc1` (stereo unspecified), for which the IC50 came to 41.8 µM in the assay with MCF7, 28.1 µM in the assay on A549 and 9.24 µM in the assay on HeLa.

Turning to `CN1CCN(c2ccc3nc(-c4ccc5nc(-c6ccc(O)cc6)[nH]c5c4)[nH]c3c2)CC1`, the concentration for half-maximal inhibition (IC50) in the assay with MCF7 was found to be 48.1 µM; with HeLa, 23.5 µM.

Turning to `Cc1ccc2nc(NC(c3cn(-c4ccccc4)nc3-c3ccc([N+](=O)[O-])cc3)c3c(O)ccc4ccccc34)sc2c1` (stereo unspecified), the IC50 worked out at 20.7 µM with MCF7, 29 µM with A549 and 7.04 µM in the assay on HeLa.

On to `COc1cccc(-c2nn(-c3ccccc3)cc2C(Nc2nc3ccccc3s2)c2c(O)ccc3ccccc23)c1` (stereo unspecified), for which the half-inhibitory concentration (IC50) with MCF7 was determined as 16.9 µM; with A549, 24.8 µM; in the assay with HeLa, 14.9 µM.

For `Cc1ccc2nc(NC(c3cn(-c4ccccc4)nc3-c3cccc([N+](=O)[O-])c3)c3c(O)ccc4ccccc34)sc2c1` (stereo unspecified), the IC50 in the assay with MCF7 was 38.4 µM; in the assay on A549, 57.4 µM; in the assay on HeLa, 7.36 µM.

In the case of `Oc1ccc2ccccc2c1C(Nc1nc2ccc(Cl)cc2s1)c1cn(-c2ccccc2)nc1-c1ccccc1` (stereo unspecified), the 50% inhibitory concentration (IC50) is 36.3 µM in the assay with MCF7, 51.1 µM in the assay on A549 and 12.5 µM with HeLa.

For the compound `Oc1ccc2ccccc2c1C(Nc1nc2ccc(Cl)cc2s1)c1cn(-c2ccccc2)nc1-c1ccc(F)cc1` (stereo unspecified), the IC50 with MCF7 was 21.6 µM; with A549, 32.1 µM; in the assay with HeLa, 30.1 µM.

`O=[N+]([O-])c1cccc(-c2nn(-c3ccccc3)cc2C(Nc2nc3ccc(Cl)cc3s2)c2c(O)ccc3ccccc23)c1` (stereo unspecified): the IC50 was 19.7 µM with MCF7, 42.5 µM with A549 and 15.5 µM with HeLa.

Turning to `Cc1ccc(-c2nn(-c3ccccc3)cc2C(Nc2nc3cc(C)c(C)cc3s2)c2c(O)ccc3ccccc23)cc1` (stereo unspecified), the half-maximal inhibitory concentration (IC50) in the assay with MCF7 stood at 22.4 µM; with A549, 31.2 µM; in the assay with HeLa, 17.8 µM.

For `Cc1cccc(-c2nn(-c3ccccc3)cc2C(Nc2nc3ccccc3s2)c2c(O)ccc3ccccc23)c1` (stereo unspecified), the half-inhibitory concentration (IC50) is 17.3 µM with MCF7, 18.5 µM with A549 and 7.02 µM in the assay on HeLa.

As to `COc1ccc2nc(NC(c3cn(-c4ccccc4)nc3-c3cccc(I)c3)c3c(O)ccc4ccccc34)sc2c1` (stereo unspecified), the IC50 is 20 µM in the assay on MCF7, 39.3 µM in the assay on A549 and 6.24 µM in the assay with HeLa.

Consider `Oc1ccc2ccccc2c1C(Nc1nc2ccc(Cl)cc2s1)c1cn(-c2ccccc2)nc1-c1cccc(Cl)c1` (stereo unspecified), for which the IC50 was found to be 17.5 µM with MCF7, 33.3 µM with A549 and 18.3 µM with HeLa.

As for `O=[N+]([O-])c1ccc(-c2nn(-c3ccccc3)cc2C(Nc2nc3ccc(Cl)cc3s2)c2c(O)ccc3ccccc23)cc1` (stereo unspecified), the IC50 in the assay on MCF7 worked out at 38.6 µM; in the assay with A549 it was 57.2 µM; in the assay on HeLa, 13.4 µM.

Consider `COc1cccc(-c2nn(-c3ccccc3)cc2C(Nc2nc3ccc(Cl)cc3s2)c2c(O)ccc3ccccc23)c1` (stereo unspecified), for which the IC50 in the assay with MCF7 stood at 36 µM; with A549 it was 49.8 µM; in the assay with HeLa, 30 µM.

Turning to `COc1ccc2nc(NC(c3cn(-c4ccccc4)nc3-c3cccc([N+](=O)[O-])c3)c3c(O)ccc4ccccc34)sc2c1` (stereo unspecified), the figures for the IC50 in the assay on MCF7, with A549 and in the assay on HeLa were 26.8 µM, 52.1 µM and 6.14 µM, respectively.

For the origin of these results see ChEMBL document CHEMBL4330150, “Synthesis and biological evaluation of pyrazole linked benzothiazole-β-naphthol derivatives as topoisomerase I inhibitors with DNA binding ability” (Bioorg Med Chem, 2019).
